Entries after “also recorded” stand apart in the source; their conditions may differ.
Key:
Type in all cases: in vivo, mouse
whole kidney tissue = assay: Measurements of mRNA expression in the kidney (real-time PCR), LPS-induced AKI; details: for Orai1 gene expression: 7 days after LPS 20 mg/kg (FIG. 2E); for NGAL gene expression: 7 days after LPS (FIG. 6C); for proinflammatory cytokines gene expression (IL-1b, IL-17, IL-6, TNF-α, IL-18): 7 days after LPS (FIGS. 3A-3E)
Experimental: (§1) Experimental Design for IGF-1 and BTP-2 studies—The animal experiments involved B6 mice between 5-8 weeks of age. Most experiments involved five groups of animals: (1) healthy, (2) LPS untreated (LPS-No Tx), (3) IGF-I in vivo gene therapy one day before LPS injection (LPS+IGF-1), (4) BTP-2 16 mg/kg i.p. at the start of the study and the (5) combined therapy with IGF-I and BTP-2 (LPS-IGF-1+BTP-2). For the survival experiment, a lethal dose of LPS (25 mg/kg) was used and all of the untreated animals died by 72 hours. In the other experiments, a sublethal dose of LPS (20 mg/kg) was used.
(§2) LPS induced sepsis and subsequent AKI—Female C57BL/6 mice received a sublethal or lethal dose of LPS from E. coli (0127: B8 strain, Sigma Aldrich, St. Louis, MO, USA) in a concentration of 20 or 25 mg/kg body weight administrated in sterile PBS by intraperitoneal injection.
(§3) Treatment—In a preventive therapeutic strategy, some of the mice received an intramuscular injection of Lenti-IGF-1 24 hours before LPS injection; whereas, the calcium signaling blocker BTP-2 (16 mg/kg, Cayman Chemical) was administrated 1 hour before LPS injection. Some of the animals received a combination of Lenti-IGF-1 and BTP-2. Control group mice were injected with an equal volume of PBS.
Measurements of mRNA Expression in the Kidney—For the measurement of the mRNA expressions of whole kidney tissue, we performed real-time PCR. The relative amount of mRNA was calculated using the comparative Ct(ΔΔCt) method. All specific amplicons were normalized against GAPDH.

kidneys = assay: Vascular leakage permeability assay (Evans blue dye), kidney; details: day 1 (FIG. 5A)
Experimental: as §1
LPS induced sepsis and subsequent AKI—Female C57BL/6 mice received a sublethal or lethal dose of LPS from E. coli (0127: B8 strain, Sigma Aldrich, St. Louis, MO, USA) in a concentration of 20 or 25 mg/kg body weight administrated in sterile PBS by intraperitoneal injection. […]
Vascular leakage permeability assay—Evans blue dye (EBD) was dissolved in a 0.9% saline solution at a concentration of 5 mg/mL and injected to the mouse tail vein (50 mg/kg, i.v.). […] The absorbance of the supernatants was measured at 620 and 740 nm using a dual-wave ELISA plate reader.

kidney = assay: Renal histology (CD31 and α-SMA staining, PAS staining, tubular injury score); details: for PECAM (CD-31) staining: renal sections (FIGS. 4A-4E); for α-SMA staining: renal sections (FIGS. 4F-4J)
Experimental: as §1, §2, §3
Renal Histology—After sacrificing the mice, one part of the kidney was immediately cut, fixed in a 10% neutral buffered formalin solution, embedded in paraffin, and used for histopathological examination. 10-micrometer-thick sections were cut, deparaffinized, and hydrated. All renal serial sections were incubated at 4° C. overnight with one of two antibodies; rabbit polyclonal antibody against PECAM (CD31) (Santa Cruz, MA) or rabbit polyclonal antibody against α-SMA (Abcam, MA). After washing with TBST, biotinylated goat anti-rabbit IgG (1:200, Vector Labs, Burlingame, CA) were applied to the sections for 30 min at room temperature. Sections then were incubated with Streptavidin-HRP (Vector Labs, Burlingame, CA) for 30 min at room temperature. Diaminobenzidine (DAB; Vector Labs, Burlingame, CA) was used as the chromogen and hematoxylin as the counterstain. One part of the kidney was stained with periodic acid Schiff (PAS) stain. The PAS stained sections were examined for renal morphology in an automated fashion by quantification of a glycogen specific color in the kidney tissue using ImageJ (National Institutes of Health, Bethesda, MD, USA). A minimum of 10 fields for each kidney slide were examined and scored for pathological injury. […] The average histological score for each sample was calculated. The images were captured with an Olympus BX51 microscope, 40× magnification. (Olympus, Center Valley, PA).

whole lung tissues = assay: Measurements of mRNA expression in the lungs (RT-qPCR), acute lung injury induced by LPS; details: for CD31 gene expression: lungs (FIG. 12A); for VEGF gene expression: lungs (FIG. 12B); for α-SMA gene expression: lungs (FIG. 12C); for TRPC3 gene expression: day 7 (FIG. 10B); for TRPC6 gene expression: day 7 (FIG. 10C); for Orai1 gene expression: day 7 (FIG. 10D); for NGAL expression: day 7 (FIG. 15A); for SP-D expression: day 7 (FIG. 15B); for caspase 3 expression: day 7 (FIG. 15C); for proinflammatory cytokines gene expression (IL-1, IL-6, IL-17, TNF-α, IFN-γ): day 7 (FIGS. 11A-11E); for TLR-4 gene expression: seven days after LPS (FIG. 10A)
Experimental: Acute Lung Injury Induced by LPS—Female C57BL/6 mice received a sublethal or lethal dose of LPS from Escherichia coli (0127: B8 strain, Sigma Aldrich, St. Louis, MO, USA). LPS in sterile PBS was administered intraperitoneally at 20- or 25-mg/kg body weight.
Treatment for Lung Studies-Lenti-IGF-I was administered intramuscularly 24 h before LPS injection. The TRP and ORAI calcium channel blocker BTP-2 (YM-58483 16 mg/kg, Cayman Chemical, Ann Arbor, MI, USA) was given IP 1 h before LPS injection. Some of the animals received a combination of lenti-IGF-I and BTP-2. Mice in control groups were injected with an equal volume of PBS.
Measurements of mRNA Expression in the Lungs—For the measurement of the mRNA expressions of the whole lung tissues, RT-qPCR was performed. Lung tissues were snap-frozen in liquid nitrogen. According to the manufacturer's instructions, total RNA was isolated using the RNeasy Micro Kit® (Qiagen, Valencia, CA, USA). First-strand cDNA was synthesized using the SuperScript® III Reverse Transcriptase (Life Technologies, Grand Island, NY, USA). Quantitative RT-qPCR was performed and analyzed in an Applied Biosystems 7900HT Real-Time PCR machine (Applied Biosystems, Foster City, CA). The PCR condition was 10 min at 95° C. followed by 40 cycles of 10 s at 95° C. and 15 s at 60° C. The relative amount of mRNA was calculated using the comparative Ct (DDCt) method. All specific amplicons were normalized against GAPDH. Table 2 (SEQ ID Nos:1-36) provides for a list of the primers.

`Cc1nnsc1C(=O)Nc1ccc(-n2nc(C(F)(F)F)cc2C(F)(F)F)cc1` [BTP-2, 3,5-bis(trifluoromethyl)pyrazole derivative] was tested, and the Orai1 gene expression (whole kidney tissue) was “decreased Orai1 expression to normal; also recorded: marked decrease”, the Nf-kB gene expression (whole kidney tissue; 7 days after LPS (FIG. 2C)) was “decreased” and the CD31 gene expression (whole kidney tissue; 7 days after LPS (FIG. 5C)) was “increased”. For the same compound, the NGAL gene expression (whole kidney tissue) was “improved”, the “proinflammatory cytokines gene expression (IL-1b, IL-17, IL-6, TNF-α, IL-18)” value (whole kidney tissue) was “decreased” and the “vascular leakage (extravasation of Evans blue dye)” value (kidneys) was “more so”. For the same compound, the “PECAM (CD-31) staining” value (kidney) was “improved”, the α-SMA staining (kidney) was “improved” and the CD31 gene expression (whole lung tissues) was “corrected”. The VEGF gene expression (whole lung tissues) was “markedly increased the VEGF expression”, the α-SMA gene expression (whole lung tissues) was “completely corrected” and the IFN-γ expression (whole lung tissues; lungs, day 7) was “decreased; also recorded: corrected”. For the same compound, the IL-17 expression (whole lung tissues; lungs, day 7) was “markedly decreased”, the TNF-α expression (whole lung tissues; lungs, day 7) was “marked decreases; also recorded: decreased” and the TRPC3 gene expression (whole lung tissues; lungs) was “decreased; also recorded: normalized”. The TRPC6 gene expression (whole lung tissues; lungs) was “decreased; also recorded: normalized”, the Orai1 gene expression (whole lung tissues; lungs) was “significant decrease; also recorded: normalized” and the calcineurin gene expression (whole lung tissues; lungs, day 7 (FIG. 10E)) was “decreased; also recorded: normalized”. For the same compound, the Nfat gene expression (whole lung tissues; lungs, day 7 (FIG. 10F)) was “decreased; also recorded: normalized”, the NGAL expression (whole lung tissues; lungs) was “significantly reduced the elevated NGAL expression almost to normal” and the SP-D expression (whole lung tissues; lungs) was “normalized”. For the same compound, the “caspase 3 expression” value (whole lung tissues; lungs) was “corrected the elevated caspase 3 expression”, the “proinflammatory cytokines gene expression (IL-1, IL-6, IL-17, TNF-α, IFN-γ)” value (whole lung tissues; lungs) was “decreased the gene expression most of the proinflammatory cytokines to normal; also recorded: remarkably suppressive” and the TLR-4 gene expression (whole lung tissues; lungs) was “decreased the TLR-4 gene expression to the normal level”.
With “IGF-I: Insulin-like Growth Factor, delivered by a lentiviral vector engineered to express IGF-I injected into skeletal muscle” the Orai1 gene expression (whole kidney tissue) was “decreased Orai1 expression”, the NGAL gene expression (whole kidney tissue) was “improved” and the “proinflammatory cytokines gene expression (IL-1b, IL-17, IL-6, TNF-α, IL-18)” value (whole kidney tissue) was “decreased”. The “vascular leakage (extravasation of Evans blue dye)” value (kidneys) was “improved”, the “PECAM (CD-31) staining” value (kidney) was “improved” and the α-SMA staining (kidney) was “improved”. For the same compound, the CD31 gene expression (whole lung tissues) was “corrected”, the VEGF gene expression (whole lung tissues) was “did not affect the VEGF expression” and the α-SMA gene expression (whole lung tissues) was “did not indicate such beneficial effects”. For the same compound, the IFN-γ expression (whole lung tissues; lungs, day 7) was “decreased; also recorded: corrected”, the IL-6 expression (whole lung tissues; lungs, day 7) was “markedly decrease” and the IL-17 expression (whole lung tissues; lungs, day 7) was “markedly decreased”. For the same compound, the TNF-α expression (whole lung tissues; lungs, day 7) was “marked decreases; also recorded: decreased”, the TRPC3 gene expression (whole lung tissues; lungs) was “decreased; also recorded: significant decrease” and the TRPC6 gene expression (whole lung tissues; lungs) was “decreased; also recorded: significant decrease”. The Orai1 gene expression (whole lung tissues; lungs) was “decreased; also recorded: significant decrease”, the NGAL expression (whole lung tissues; lungs) was “significantly reduced the elevated NGAL expression almost to normal” and the SP-D expression (whole lung tissues; lungs) was “normalized”. For the same compound, the “caspase 3 expression” value (whole lung tissues; lungs) was “corrected the elevated caspase 3 expression”, the “proinflammatory cytokines gene expression (IL-1, IL-6, IL-17, TNF-α, IFN-γ)” value (whole lung tissues; lungs) was “decreased the gene expression most of the proinflammatory cytokines to normal; also recorded: remarkably suppressive; also recorded: as effective as BTP-2” and the TLR-4 gene expression (whole lung tissues; lungs) was “decreased the TLR-4 gene expression to the normal level”.
